ChEMBL document CHEMBL4028801, “A multifactorial approach to hepatobiliary transporter assessment enables improved therapeutic compound development” (Toxicol Sci, 2013)

Tests used:
[1] = molecular target: ATP-binding cassette sub-family C member 3 (Homo sapiens, UniProt O15438); assay: Inhibition of human MRP3 overexpressed in Sf9 insect cell membrane vesicles assessed as uptake of [3H]-estradiol-17beta-D-glucuronide in presence of ATP and GSH measured after 10 mins by membrane vesicle transport assay; assay type: ADME, cell-based
[2] = molecular target: T1, ATP-binding cassette sub-family C member 4 (Homo sapiens, UniProt O15439); assay: Inhibition of human MRP4 overexpressed in Sf9 cell membrane vesicles assessed as uptake of [3H]-estradiol-17beta-D-glucuronide in presence of ATP and GSH measured after 20 mins by membrane vesicle transport assay; assay type: ADME, cell-based
T1 sequence (O15439 whole entry): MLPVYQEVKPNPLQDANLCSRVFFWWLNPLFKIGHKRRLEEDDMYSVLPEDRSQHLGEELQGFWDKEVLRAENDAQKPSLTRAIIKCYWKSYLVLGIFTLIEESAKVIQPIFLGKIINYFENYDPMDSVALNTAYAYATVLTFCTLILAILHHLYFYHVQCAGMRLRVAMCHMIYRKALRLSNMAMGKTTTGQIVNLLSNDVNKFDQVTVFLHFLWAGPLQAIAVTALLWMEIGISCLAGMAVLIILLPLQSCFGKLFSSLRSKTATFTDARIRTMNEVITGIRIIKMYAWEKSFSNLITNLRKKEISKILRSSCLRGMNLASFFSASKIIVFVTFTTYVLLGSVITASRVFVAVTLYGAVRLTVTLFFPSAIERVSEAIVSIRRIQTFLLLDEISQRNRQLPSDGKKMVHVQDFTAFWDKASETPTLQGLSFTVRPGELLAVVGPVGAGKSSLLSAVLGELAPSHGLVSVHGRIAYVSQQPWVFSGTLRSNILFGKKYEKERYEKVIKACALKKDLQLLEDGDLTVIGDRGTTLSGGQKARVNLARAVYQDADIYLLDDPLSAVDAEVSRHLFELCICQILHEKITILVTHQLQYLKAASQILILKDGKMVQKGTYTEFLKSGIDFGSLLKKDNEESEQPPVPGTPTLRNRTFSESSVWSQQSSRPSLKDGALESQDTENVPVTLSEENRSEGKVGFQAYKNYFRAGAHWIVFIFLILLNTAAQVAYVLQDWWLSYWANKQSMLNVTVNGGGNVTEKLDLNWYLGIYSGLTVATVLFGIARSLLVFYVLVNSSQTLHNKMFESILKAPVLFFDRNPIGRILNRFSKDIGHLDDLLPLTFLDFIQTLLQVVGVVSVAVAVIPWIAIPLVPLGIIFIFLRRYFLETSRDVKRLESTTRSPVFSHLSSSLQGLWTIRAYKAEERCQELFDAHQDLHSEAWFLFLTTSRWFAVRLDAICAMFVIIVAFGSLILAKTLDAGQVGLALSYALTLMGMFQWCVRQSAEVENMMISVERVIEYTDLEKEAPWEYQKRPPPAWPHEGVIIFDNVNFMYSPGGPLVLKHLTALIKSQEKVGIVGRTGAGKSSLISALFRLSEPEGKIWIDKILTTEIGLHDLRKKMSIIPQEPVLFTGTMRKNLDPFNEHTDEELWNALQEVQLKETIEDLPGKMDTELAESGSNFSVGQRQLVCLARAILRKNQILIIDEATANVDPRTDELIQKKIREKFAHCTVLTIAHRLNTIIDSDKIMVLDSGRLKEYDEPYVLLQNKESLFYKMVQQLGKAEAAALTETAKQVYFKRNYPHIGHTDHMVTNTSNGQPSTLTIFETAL

Bile salt export pump = Bile salt export pump (Homo sapiens, UniProt O95342); assay: Inhibition of human BSEP overexpressed in Sf9 cell membrane vesicles assessed as uptake of [3H]-taurocholate in presence of ATP measured after 15 to 20 mins by membrane vesicle transport assay; assay type: ADME, cell-based
[3] = molecular target: ATP-binding cassette sub-family C member 2 (Homo sapiens, UniProt Q92887); assay: Inhibition of human MRP2 overexpressed in Sf9 cell membrane vesicles assessed as uptake of [3H]-estradiol-17beta-D-glucuronide in presence of ATP and GSH measured after 20 mins by membrane vesicle transport assay
Sequence of ATP-binding cassette sub-family C member 2 (Q92887 whole entry): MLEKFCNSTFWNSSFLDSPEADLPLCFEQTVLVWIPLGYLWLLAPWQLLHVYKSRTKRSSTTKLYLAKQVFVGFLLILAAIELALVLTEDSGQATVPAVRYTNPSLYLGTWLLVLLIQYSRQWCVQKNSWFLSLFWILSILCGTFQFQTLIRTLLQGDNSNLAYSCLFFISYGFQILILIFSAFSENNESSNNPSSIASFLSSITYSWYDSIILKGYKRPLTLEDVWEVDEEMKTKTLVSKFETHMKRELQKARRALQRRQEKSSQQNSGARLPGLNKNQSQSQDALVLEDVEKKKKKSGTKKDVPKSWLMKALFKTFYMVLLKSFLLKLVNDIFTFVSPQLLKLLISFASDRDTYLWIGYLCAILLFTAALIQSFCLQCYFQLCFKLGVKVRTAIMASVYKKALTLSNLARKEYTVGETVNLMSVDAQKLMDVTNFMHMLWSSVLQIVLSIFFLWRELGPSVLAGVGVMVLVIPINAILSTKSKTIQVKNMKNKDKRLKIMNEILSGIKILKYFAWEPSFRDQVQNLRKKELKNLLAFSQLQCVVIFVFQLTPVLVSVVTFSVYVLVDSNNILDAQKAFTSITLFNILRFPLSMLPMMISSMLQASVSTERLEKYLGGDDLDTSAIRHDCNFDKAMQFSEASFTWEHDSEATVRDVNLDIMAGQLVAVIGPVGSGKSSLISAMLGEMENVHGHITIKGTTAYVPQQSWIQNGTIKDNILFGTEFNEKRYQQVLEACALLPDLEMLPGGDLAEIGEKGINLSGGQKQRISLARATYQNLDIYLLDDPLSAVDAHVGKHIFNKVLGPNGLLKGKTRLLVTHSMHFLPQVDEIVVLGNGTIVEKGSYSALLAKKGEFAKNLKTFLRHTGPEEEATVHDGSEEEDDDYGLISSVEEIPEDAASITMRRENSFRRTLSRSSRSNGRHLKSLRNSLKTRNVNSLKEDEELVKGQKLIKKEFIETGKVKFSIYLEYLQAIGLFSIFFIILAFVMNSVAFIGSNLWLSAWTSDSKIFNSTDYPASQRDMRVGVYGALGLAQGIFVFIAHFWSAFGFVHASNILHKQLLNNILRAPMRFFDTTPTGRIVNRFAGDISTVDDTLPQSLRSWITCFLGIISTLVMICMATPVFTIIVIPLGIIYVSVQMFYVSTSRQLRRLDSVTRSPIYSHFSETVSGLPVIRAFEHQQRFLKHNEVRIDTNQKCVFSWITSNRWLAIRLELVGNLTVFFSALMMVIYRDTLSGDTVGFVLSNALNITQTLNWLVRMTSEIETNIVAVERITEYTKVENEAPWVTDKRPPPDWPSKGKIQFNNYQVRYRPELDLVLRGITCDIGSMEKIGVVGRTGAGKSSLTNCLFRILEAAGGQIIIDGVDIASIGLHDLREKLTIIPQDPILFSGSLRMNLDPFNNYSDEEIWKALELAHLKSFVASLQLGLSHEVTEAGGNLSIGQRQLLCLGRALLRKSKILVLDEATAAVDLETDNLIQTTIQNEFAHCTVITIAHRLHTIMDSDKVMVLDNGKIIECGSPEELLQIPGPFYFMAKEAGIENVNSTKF

Sequence of Bile salt export pump (O95342 whole entry): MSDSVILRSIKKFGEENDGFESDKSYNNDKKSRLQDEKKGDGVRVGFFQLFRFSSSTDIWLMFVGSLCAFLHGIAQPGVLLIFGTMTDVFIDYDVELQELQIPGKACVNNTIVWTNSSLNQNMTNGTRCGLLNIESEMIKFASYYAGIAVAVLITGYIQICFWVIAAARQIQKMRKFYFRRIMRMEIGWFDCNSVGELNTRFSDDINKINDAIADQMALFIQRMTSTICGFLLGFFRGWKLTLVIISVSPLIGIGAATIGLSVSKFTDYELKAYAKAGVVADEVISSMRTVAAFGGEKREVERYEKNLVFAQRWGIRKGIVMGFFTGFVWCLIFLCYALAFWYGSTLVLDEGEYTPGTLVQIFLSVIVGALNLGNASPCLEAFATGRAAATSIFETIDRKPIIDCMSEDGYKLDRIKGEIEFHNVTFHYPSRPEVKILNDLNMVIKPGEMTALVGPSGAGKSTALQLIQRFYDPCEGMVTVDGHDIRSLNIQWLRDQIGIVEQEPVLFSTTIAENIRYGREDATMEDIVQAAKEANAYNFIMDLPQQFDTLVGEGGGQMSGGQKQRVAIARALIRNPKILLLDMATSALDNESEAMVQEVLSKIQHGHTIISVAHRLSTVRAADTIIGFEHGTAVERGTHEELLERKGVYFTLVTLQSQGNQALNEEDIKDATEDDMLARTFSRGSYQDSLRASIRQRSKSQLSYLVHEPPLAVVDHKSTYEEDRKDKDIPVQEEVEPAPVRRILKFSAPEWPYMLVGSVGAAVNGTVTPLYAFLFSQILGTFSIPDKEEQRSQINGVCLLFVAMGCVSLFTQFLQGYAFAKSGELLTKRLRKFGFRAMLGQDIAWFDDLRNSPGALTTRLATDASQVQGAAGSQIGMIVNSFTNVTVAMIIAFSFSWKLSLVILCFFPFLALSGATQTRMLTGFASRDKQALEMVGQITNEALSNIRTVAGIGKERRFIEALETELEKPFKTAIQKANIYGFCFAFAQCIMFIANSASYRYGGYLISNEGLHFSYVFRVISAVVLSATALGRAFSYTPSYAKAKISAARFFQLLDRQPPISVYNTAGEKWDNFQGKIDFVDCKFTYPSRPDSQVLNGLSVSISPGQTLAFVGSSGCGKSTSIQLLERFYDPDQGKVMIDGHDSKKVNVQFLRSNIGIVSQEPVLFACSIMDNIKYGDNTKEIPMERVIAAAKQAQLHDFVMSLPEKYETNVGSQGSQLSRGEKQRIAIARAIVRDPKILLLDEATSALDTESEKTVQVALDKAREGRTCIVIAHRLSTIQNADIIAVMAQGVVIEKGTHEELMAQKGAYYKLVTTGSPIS
Sequence of ATP-binding cassette sub-family C member 3 (O15438 whole entry): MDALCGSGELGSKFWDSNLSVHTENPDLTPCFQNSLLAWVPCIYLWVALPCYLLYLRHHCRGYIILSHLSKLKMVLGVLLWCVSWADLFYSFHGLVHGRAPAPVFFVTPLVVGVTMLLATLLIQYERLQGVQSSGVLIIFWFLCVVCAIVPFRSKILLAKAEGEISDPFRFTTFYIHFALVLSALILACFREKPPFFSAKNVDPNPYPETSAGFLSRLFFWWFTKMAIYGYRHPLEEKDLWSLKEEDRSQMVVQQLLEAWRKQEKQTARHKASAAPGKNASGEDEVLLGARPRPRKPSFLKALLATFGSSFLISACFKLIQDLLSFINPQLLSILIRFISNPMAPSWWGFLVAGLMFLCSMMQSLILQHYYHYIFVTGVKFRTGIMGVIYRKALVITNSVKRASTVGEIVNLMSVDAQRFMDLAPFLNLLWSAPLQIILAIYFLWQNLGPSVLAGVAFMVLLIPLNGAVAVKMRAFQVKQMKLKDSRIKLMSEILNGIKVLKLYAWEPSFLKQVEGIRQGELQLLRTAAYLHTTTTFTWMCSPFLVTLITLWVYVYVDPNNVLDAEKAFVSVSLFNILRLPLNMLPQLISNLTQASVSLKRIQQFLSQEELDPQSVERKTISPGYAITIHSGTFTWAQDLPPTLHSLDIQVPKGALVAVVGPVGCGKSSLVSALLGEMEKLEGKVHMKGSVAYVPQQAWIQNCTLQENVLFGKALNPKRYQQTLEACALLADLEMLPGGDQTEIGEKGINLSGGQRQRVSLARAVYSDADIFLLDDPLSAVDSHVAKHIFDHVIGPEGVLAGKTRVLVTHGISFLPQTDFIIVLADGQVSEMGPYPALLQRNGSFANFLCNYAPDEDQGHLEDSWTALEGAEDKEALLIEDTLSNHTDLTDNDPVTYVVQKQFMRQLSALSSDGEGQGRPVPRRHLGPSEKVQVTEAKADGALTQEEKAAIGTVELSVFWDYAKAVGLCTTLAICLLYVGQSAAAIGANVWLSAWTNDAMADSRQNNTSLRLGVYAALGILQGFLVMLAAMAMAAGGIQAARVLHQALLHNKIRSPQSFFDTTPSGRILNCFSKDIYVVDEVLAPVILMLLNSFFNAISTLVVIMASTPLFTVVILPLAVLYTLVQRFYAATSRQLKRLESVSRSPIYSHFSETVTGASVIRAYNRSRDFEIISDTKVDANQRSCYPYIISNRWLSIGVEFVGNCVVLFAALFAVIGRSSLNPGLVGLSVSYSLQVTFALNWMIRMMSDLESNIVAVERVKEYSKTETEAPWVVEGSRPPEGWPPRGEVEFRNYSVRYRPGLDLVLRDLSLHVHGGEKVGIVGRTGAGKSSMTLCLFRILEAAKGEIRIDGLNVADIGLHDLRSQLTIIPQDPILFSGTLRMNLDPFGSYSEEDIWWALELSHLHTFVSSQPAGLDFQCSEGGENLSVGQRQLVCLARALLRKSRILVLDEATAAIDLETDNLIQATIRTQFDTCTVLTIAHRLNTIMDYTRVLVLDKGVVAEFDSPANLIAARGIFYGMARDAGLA

CCOC(=O)[C@H](CCc1ccccc1)N[C@@H](C)C(=O)N1[C@H](C(=O)O)C[C@@H]2CCC[C@@H]21
IC50 [1]: > 133 µM
IC50 [2]: > 133 µM
IC50 (Bile salt export pump): > 133 µM
IC50 [3]: > 133 µM

O=C1CN=C(c2ccccc2)c2cc([N+](=O)[O-])ccc2N1 [NITRAZEPAM]
IC50 [1]: > 133 µM
IC50 [2]: > 133 µM
IC50 (Bile salt export pump): > 133 µM
IC50 [3]: > 133 µM

C[C@H]1C[C@H]2[C@@H]3CCC4=CC(=O)C=C[C@]4(C)[C@@]3(F)[C@@H](O)C[C@]2(C)[C@@]1(O)C(=O)CO [BETAMETHASONE]
IC50 [1]: > 133 µM
IC50 [2]: > 133 µM
IC50 (Bile salt export pump): > 133 µM
IC50 [3]: > 133 µM

C=CCN1CC[C@]23c4c5ccc(O)c4O[C@H]2C(=O)CC[C@@]3(O)[C@H]1C5 [NALOXONE]
IC50 [1]: > 133 µM
IC50 [2]: > 133 µM
IC50 (Bile salt export pump): > 133 µM
IC50 [3]: > 133 µM

Cc1cccc(N(C)C(=S)Oc2ccc3ccccc3c2)c1 [TOLNAFTATE]
IC50 [1]: > 133 µM
IC50 [2]: > 133 µM
IC50 (Bile salt export pump): > 133 µM
IC50 [3]: > 133 µM

CCN1CCN(C(=O)N[C@@H](C(=O)N[C@@H]2C(=O)N3[C@@H]2SC(C)(C)[C@@H]3C(=O)O)c2ccccc2)C(=O)C1=O [PIPERACILLIN SODIUM]
IC50 [1]: > 133 µM
IC50 [2]: > 133 µM
IC50 (Bile salt export pump): > 133 µM
IC50 [3]: > 133 µM

CCCSc1ccc2nc(NC(=O)OC)[nH]c2c1 [ALBENDAZOLE]
IC50 [1]: > 133 µM
IC50 [2]: > 133 µM
IC50 (Bile salt export pump): > 133 µM
IC50 [3]: > 133 µM

O=[N+]([O-])C(Br)(CO)CO [BRONOPOL]
IC50 [1]: > 133 µM
IC50 [2]: > 133 µM
IC50 (Bile salt export pump): > 133 µM
IC50 [3]: > 133 µM

NC(=O)N1c2ccccc2C=Cc2ccccc21 [CARBAMAZEPINE]
IC50 [1]: > 133 µM
IC50 [2]: > 133 µM
IC50 (Bile salt export pump): > 133 µM
IC50 [3]: > 133 µM

C[C@@H]1CCC[C@H](C)N1NC(=O)c1ccc(Cl)c(S(N)(=O)=O)c1 [CLOPAMIDE]
IC50 [1]: > 133 µM
IC50 [2]: > 133 µM
IC50 (Bile salt export pump): > 133 µM
IC50 [3]: > 133 µM

CC(=O)SCC(Cc1ccccc1)C(=O)NCC(=O)OCc1ccccc1 (centres undefined) [RACECADOTRIL]
IC50 [1]: 99 µM
IC50 [2]: > 133 µM
IC50 (Bile salt export pump): 20.3 µM
IC50 [3]: > 133 µM

CN1CC(=O)N2[C@H](c3ccc4c(c3)OCO4)c3[nH]c4ccccc4c3C[C@@H]2C1=O
IC50 [1]: > 133 µM
IC50 [2]: > 133 µM
IC50 (Bile salt export pump): > 133 µM
IC50 [3]: > 133 µM

CCN(CC)C(=O)c1cccnc1 [NIKETHAMIDE]
IC50 [1]: > 133 µM
IC50 [2]: > 133 µM
IC50 (Bile salt export pump): > 133 µM
IC50 [3]: > 133 µM

CC1Cc2ccccc2N1NC(=O)c1ccc(Cl)c(S(N)(=O)=O)c1 (centres undefined) [INDAPAMIDE]
IC50 [1]: > 133 µM
IC50 [2]: > 133 µM
IC50 (Bile salt export pump): > 133 µM
IC50 [3]: > 133 µM

Cc1cc(=O)n(-c2ccccc2)n1C [ANTIPYRINE]
IC50 [1]: > 133 µM
IC50 [2]: > 133 µM
IC50 (Bile salt export pump): > 133 µM
IC50 [3]: > 133 µM

Nc1cc(-c2ccncc2)c[nH]c1=O [INAMRINONE]
IC50 [1]: > 133 µM
IC50 [2]: > 133 µM
IC50 (Bile salt export pump): > 133 µM
IC50 [3]: > 133 µM

C[C@@H]1CCN(C(=O)CC#N)C[C@@H]1N(C)c1ncnc2[nH]ccc12 [TOFACITINIB]
IC50 [1]: > 133 µM
IC50 [2]: > 133 µM
IC50 (Bile salt export pump): > 133 µM
IC50 [3]: > 133 µM

CS(=O)(=O)c1ccc(C2=C(c3ccccc3)C(=O)OC2)cc1 [ROFECOXIB]
IC50 [1]: > 133 µM
IC50 [2]: > 133 µM
IC50 (Bile salt export pump): > 133 µM
IC50 [3]: > 133 µM

Nc1ccn(C[C@@H](CO)OCP(=O)(O)O)c(=O)n1 [CIDOFOVIR]
IC50 [1]: > 133 µM
IC50 [2]: > 133 µM
IC50 (Bile salt export pump): > 133 µM
IC50 [3]: > 133 µM

CC(=O)Nc1ccc(/C=N/NC(N)=S)cc1 [AMITHIOZONE]
IC50 [1]: > 133 µM
IC50 [2]: > 133 µM
IC50 (Bile salt export pump): > 133 µM
IC50 [3]: > 133 µM

CCN(CC)CCNC(=O)c1cc(S(C)(=O)=O)ccc1OC [TIAPRIDE]
IC50 [1]: > 133 µM
IC50 [2]: > 133 µM
IC50 (Bile salt export pump): > 133 µM
IC50 [3]: > 133 µM
